Results from patent publication US20250101003A1, “SPIROCYCLIC CAV2.3 ANTAGONISTS” (LARIO THERAPEUTICS LIMITED, priority 2021, published 2025).

Each compound was assayed against Cav2.3 (Homo sapiens, UniProt Q15878) (assay: Human Cav2.3 channel calcium-influx assay). Conditions: HEK-293 T-Rex/Kir2.1/Cav2.3e-β4-α2δ1 cells, Fluo8 fluorescence, without pluronic acid; read-out: Cav2.3 (pIC50) (converted).
Type: cell-based
Protocol: HEK-293 T-Rex cells were transfected with pcDNA3.1-Kir2.1 to generate a stable cell line. After antibiotic selection, the obtained stable pools were analysed using FLIPR^TETRA (membrane potential assay), and a limiting dilution was performed and a HEK-293 T-Rex/Kir2.1 clone was selected. The clone was transfected with pcDNA3.1-Cav2.3e and pBud-Cav-β4-α2δ1 to generate a stable cell line where the Cav2.3e expression is inducible. After antibiotic selection, functional clone pool analysis and two successive limiting dilutions, the final clone underwent a qPCR analysis and a biophysical and pharmacological validation using patch-clamp.
A compound plate, containing 10 test compounds in eight-points dose response with n=4, was prepared. Test compounds dose response curves were prepared in automated fashion in 100% DMSO at CyBio Felix and starting from a stock solution in 100% DMSO; a defined volume was serially moved into destination wells pre-filled with the desired DMSO volume; stock solution concentration volumes were dependent on the final compounds concentrations to be tested and the final DMSO content used in the assay. For the assay test compounds dose response curves ranged from 30 μM and half log dilution with 0.3% final DMSO. In order to obtain the 8-points dose response curve all the concentrations were created by starting from a 10 mM DMSO stock solution and then moving 9.5 μL into a destination well pre-filled with 20.5 μL of 100% DMSO and repeating this step seven times. This initial step was done into 96 MTP plates, 10 compounds/plate. One 384 MTP was then reformatted to contain all the 10 compounds at 8 concentrations, quadruplicate data points. This so obtained 384 MTP compound plate served as source plate in a “mother to child” process with a CyBi®-Well dispenser in which 0.7 μL of compounds were moved into a destination plate pre-filled with 57.6 μL of Tyrode's buffer 0 mM K+, thus obtaining 4× concentrated compounds solution. In columns 1-2 and 23-24 the control wells were added. Both “source” compound plate and “destination” compound plate were barcoded and a relationship between the two plates was thus generated.
The day before the experiment, cells were detached by gentle wash with DPBS, followed by 5 min incubation at 37° C. with Trypsin solution. Detached cells were diluted with OptiMEM+Doxycycline at 0.2 μg/mL, counted and plated in Poly-D-Lysine coated black/clear bottom (15.000 c/well in 20 μl/well) by the use of a MATRIX WellMate dispenser. Plates were placed into a humidified incubator at 37° C. with 5% CO2 until the experimental day. 24 h after seeding 10 μL/well of 1.5× Fluo8 NW dye solution prepared in Tyrode's buffer 0 mM K^+ were added on top of the seeding medium. Cell plates were incubated for 40-60 min at RT in the dark. We then Injected off-line 10 μL/well of test compounds and controls 4× concentrated in Tyrode's Buffer 0 mM K+ with the CyBi®-Well instrument. Cell plates were incubated 3 minutes at RT. Finally, we injected 20 μL/well of 3× concentrated activator solution (K20-Na130-Ca2 buffer: 20 mM KCl, 130 mM NaCl, 2 mM CaCl2, 10 mM HEPES, 10 mM Glucose, final concentrations, prepared starting from “KO-Na150-Ca2” and “K150-Na0-Ca2” buffers) at FDSS7000EX instrument and read emitted fluorescence for 130 seconds.
Data analysis was performed with Genedata Screener® software and reported compounds activity as % effect in relation to the normalization standards. The Kinetic Response Value (KRV) is calculated as follows:
KRV=Maximal fluorescence recorded from second 5 to second 130 minus baseline fluorescence, computed as average from second 1 to second 2, of the kinetic trace. The KRV was normalized versus Neutral Controls and Inhibitor Controls in order to obtain the Activity[%] for each well. […] Therefore, the compound activity values were scaled (based on the two references) to a common range (two-point normalization). […]

Chain of Cav2.3 (Q15878 1-747 limits assumed): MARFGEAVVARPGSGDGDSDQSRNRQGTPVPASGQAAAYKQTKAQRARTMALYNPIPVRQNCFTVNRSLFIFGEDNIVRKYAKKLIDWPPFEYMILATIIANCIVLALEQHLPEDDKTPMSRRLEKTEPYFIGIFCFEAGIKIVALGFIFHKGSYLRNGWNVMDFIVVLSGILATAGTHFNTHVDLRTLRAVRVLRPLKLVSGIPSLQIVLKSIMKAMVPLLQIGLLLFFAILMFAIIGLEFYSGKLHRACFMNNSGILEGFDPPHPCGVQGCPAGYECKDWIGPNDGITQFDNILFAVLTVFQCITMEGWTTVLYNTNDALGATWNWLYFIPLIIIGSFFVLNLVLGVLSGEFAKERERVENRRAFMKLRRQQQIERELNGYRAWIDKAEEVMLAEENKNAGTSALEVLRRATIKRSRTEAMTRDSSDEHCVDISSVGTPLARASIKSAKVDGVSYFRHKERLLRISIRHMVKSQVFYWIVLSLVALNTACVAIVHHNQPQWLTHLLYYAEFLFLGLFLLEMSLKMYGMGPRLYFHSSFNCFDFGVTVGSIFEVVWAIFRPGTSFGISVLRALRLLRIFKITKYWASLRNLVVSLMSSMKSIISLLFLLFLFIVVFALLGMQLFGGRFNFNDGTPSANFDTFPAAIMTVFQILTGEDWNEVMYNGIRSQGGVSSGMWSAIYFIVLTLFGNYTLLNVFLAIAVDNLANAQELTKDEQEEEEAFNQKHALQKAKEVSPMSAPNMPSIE
Chain of Cav2.3 (Q15878 1126-2313 limits assumed): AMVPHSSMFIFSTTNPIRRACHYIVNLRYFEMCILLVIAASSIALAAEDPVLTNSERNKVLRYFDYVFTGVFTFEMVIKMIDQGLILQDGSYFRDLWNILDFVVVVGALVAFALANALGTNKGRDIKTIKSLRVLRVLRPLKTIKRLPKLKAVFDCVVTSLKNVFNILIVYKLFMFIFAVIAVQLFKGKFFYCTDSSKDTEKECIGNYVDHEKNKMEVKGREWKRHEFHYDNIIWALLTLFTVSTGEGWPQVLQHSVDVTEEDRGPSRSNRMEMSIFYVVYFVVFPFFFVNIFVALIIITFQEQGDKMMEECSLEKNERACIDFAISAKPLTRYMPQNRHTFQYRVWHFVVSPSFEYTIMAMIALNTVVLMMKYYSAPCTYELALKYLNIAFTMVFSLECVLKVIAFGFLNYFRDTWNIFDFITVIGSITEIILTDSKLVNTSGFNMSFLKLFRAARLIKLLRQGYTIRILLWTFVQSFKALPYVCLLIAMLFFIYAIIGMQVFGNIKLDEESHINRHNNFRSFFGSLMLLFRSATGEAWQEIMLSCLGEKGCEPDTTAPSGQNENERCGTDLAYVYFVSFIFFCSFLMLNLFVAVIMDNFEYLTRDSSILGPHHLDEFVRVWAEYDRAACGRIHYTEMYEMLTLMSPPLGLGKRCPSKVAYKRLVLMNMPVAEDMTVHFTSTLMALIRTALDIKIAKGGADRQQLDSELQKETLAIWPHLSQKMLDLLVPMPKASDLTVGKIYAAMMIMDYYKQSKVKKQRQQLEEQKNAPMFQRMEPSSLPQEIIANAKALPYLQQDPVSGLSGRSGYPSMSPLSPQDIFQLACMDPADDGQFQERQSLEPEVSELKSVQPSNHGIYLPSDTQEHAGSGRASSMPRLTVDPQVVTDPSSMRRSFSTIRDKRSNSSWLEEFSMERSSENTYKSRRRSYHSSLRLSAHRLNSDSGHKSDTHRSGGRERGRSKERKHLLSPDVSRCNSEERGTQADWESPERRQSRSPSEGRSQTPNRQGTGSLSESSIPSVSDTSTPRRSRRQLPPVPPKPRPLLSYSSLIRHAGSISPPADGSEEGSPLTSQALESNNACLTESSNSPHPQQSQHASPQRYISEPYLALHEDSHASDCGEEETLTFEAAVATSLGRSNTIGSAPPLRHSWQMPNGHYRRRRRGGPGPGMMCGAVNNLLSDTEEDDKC

IC50	SMILES
7.24 µM	CC1CC2(CCC2)CN1S(=O)(=O)c1ccc2c(c1)OCCO2 (single isomer, unassigned) [Example 6, 6-((2,3-Dihydrobenzo[b][1,4]dioxin-6-yl)sulfonyl)-7-methyl-6-azaspiro[3.4]octane]
2.19 µM	CC1CC2(CCC2)CN1S(=O)(=O)c1ccc2c(c1)OCCO2 (single isomer, unassigned) [Example 7, 6-((2,3-dihydrobenzo[b][1,4]dioxin-6-yl)sulfonyl)-7-methyl-6-azaspiro[3.4]octane]
7.94 µM	CC1CC2(CCC2)CN1S(=O)(=O)c1ccc(C#N)s1 (single isomer, unassigned) [Example 9, 5-((7-Methyl-6-azaspiro[3.4]octan-6-yl)sulfonyl)thiophene-2-carbonitrile]
2.69 µM	CC1CC2(CCC2)CN1S(=O)(=O)c1ccc(C#N)s1 (single isomer, unassigned) [Example 10, 5-((7-methyl-6-azaspiro[3.4]octan-6-yl)sulfonyl)thiophene-2-carbonitrile]
6.61 µM	CC1CC2(CCC2)CN1S(=O)(=O)c1ccncc1 (single isomer, unassigned) [Example 12, 7-Methyl-6-(pyridin-4-ylsulfonyl)-6-azaspiro[3.4]octane]
1.66 µM	CC1CC2(CCC2)CN1S(=O)(=O)c1ccncc1 (single isomer, unassigned) [Example 13, 7-methyl-6-(pyridin-4-ylsulfonyl)-6-azaspiro[3.4]octane]
4.79 µM	CC1CC2(CCC2)CN1S(=O)(=O)c1ccc2ccoc2c1 (single isomer, unassigned) [Example 16, 6-(Benzofuran-6-ylsulfonyl)-7-methyl-6-azaspiro[3.4]octane]
1.32 µM	CC1CC2(CCC2)CN1S(=O)(=O)c1ccc2ccoc2c1 (single isomer, unassigned) [Example 17, 6-(benzofuran-6-ylsulfonyl)-7-methyl-6-azaspiro[3.4]octane]
1.78 µM	CC1CC2(CCC2)CN1S(=O)(=O)c1ccc2c(c1)CN(C(=O)C(F)(F)F)CC2 (single isomer, unassigned) [Example 19, 2,2,2-Trifluoro-1-(7-((7-methyl-6-azaspiro[3.4]octan-6-yl)sulfonyl)-3,4-dihydroisoquinolin-2(1H)-yl)ethan-1-one]
4.27 µM	CC1CC2(CCC2)CN1S(=O)(=O)c1ccc2c(c1)CN(C(=O)C(F)(F)F)CC2 (single isomer, unassigned) [Example 20, 2,2,2-trifluoro-1-(7-((7-methyl-6-azaspiro[3.4]octan-6-yl)sulfonyl)-3,4-dihydroisoquinolin-2(1H)-yl)ethan-1-one]
1.62 µM	CCOC(=O)N1CCc2ccc(S(=O)(=O)N3CC4(CCC4)CC3C)cc2C1 (single isomer, unassigned) [Example 24, Ethyl 7-((7-methyl-6-azaspiro[3.4]octan-6-yl)sulfonyl)-3,4-dihydroisoquinoline-2(1H)-carboxylate]
7.94 µM	CC1CC2(CCC2)CN1S(=O)(=O)c1ccco1 (single isomer, unassigned) [Example 37, 6-(Furan-2-ylsulfonyl)-7-methyl-6-azaspiro[3.4]octane]
3.39 µM	CC1CC2(CCC2)CN1S(=O)(=O)c1ccco1 (single isomer, unassigned) [Example 38, 6-(furan-2-ylsulfonyl)-7-methyl-6-azaspiro[3.4]octane]
7.76 µM	CC1CC2(CCC2)CN1S(=O)(=O)c1ccccc1 (single isomer, unassigned) [Example 46, 7-Methyl-6-(phenylsulfonyl)-6-azaspiro[3.4]octane]
1.58 µM	CC1CC2(CCC2)CN1S(=O)(=O)c1ccccc1 (single isomer, unassigned) [Example 47, 7-methyl-6-(phenylsulfonyl)-6-azaspiro[3.4]octane]
8.13 µM	Cc1ccc(S(=O)(=O)N2CC3(CCC3)CC2C)o1 (single isomer, unassigned) [Example 54, 7-Methyl-6-((5-methylfuran-2-yl)sulfonyl)-6-azaspiro[3.4]octane]
4.07 µM	Cc1ccc(S(=O)(=O)N2CC3(CCC3)CC2C)o1 (single isomer, unassigned) [Example 55, 7-methyl-6-((5-methylfuran-2-yl)sulfonyl)-6-azaspiro[3.4]octane]
5.13 µM	CC1CC2(CCC2)CN1S(=O)(=O)c1cc2oc(=O)[nH]c2cc1Cl (single isomer, unassigned) [Example 57, 5-Chloro-6-((7-methyl-6-azaspiro[3.4]octan-6-yl)sulfonyl)benzo[d]oxazol-2(3H)-one]
11.5 µM	CC1CC2(CCC2)CN1S(=O)(=O)c1cc2oc(=O)[nH]c2cc1Cl (single isomer, unassigned) [Example 58, 5-chloro-6-((7-methyl-6-azaspiro[3.4]octan-6-yl)sulfonyl)benzo[d]oxazol-2(3H)-one]
0.676 µM	CCC1CC2(CCC2)CN1S(=O)(=O)c1ccc2c(c1)S(=O)(=O)CC2 (single isomer, unassigned) [Example 62, 6-((7-Ethyl-6-azaspiro[3.4]octan-6-yl)sulfonyl)-2,3-dihydrobenzo[b]thiophene 1,1-dioxide]
5.62 µM	CCC1CC2(CCC2)CN1S(=O)(=O)c1ccc2c(c1)S(=O)(=O)CC2 (single isomer, unassigned) [Example 63, 6-((7-ethyl-6-azaspiro[3.4]octan-6-yl)sulfonyl)-2,3-dihydrobenzo[b]thiophene 1,1-dioxide]
9.55 µM	CCC1CC2(CCC2)CN1S(=O)(=O)c1cccs1 (single isomer, unassigned) [Example 70, 7-Ethyl-6-(thiophen-2-ylsulfonyl)-6-azaspiro[3.4]octane]
13.8 µM	Cc1ccc(S(=O)(=O)N2CC3(CCC3)CC2C)s1 (single isomer, unassigned) [Example 77, 7-Methyl-6-((5-methylthiophen-2-yl)sulfonyl)-6-azaspiro[3.4]octane]
3.63 µM	Cc1ccc(S(=O)(=O)N2CC3(CCC3)CC2C)s1 (single isomer, unassigned) [Example 78, 7-methyl-6-((5-methylthiophen-2-yl)sulfonyl)-6-azaspiro[3.4]octane]
4.57 µM	Cc1ccnc2cc(S(=O)(=O)N3CC4(CCC4)CC3C)ccc12 (single isomer, unassigned) [Example 81, 4-Methyl-7-((7-methyl-6-azaspiro[3.4]octan-6-yl)sulfonyl)quinoline]
10.7 µM	Cc1ccnc2cc(S(=O)(=O)N3CC4(CCC4)CC3C)ccc12 (single isomer, unassigned) [Example 82, 4-methyl-7-((7-methyl-6-azaspiro[3.4]octan-6-yl)sulfonyl)quinoline]
14.5 µM	CCC1CC2(CCCC2)CN1S(=O)(=O)c1cccs1 (single isomer, unassigned) [Example 98, 3-Ethyl-2-(thiophen-2-ylsulfonyl)-2-azaspiro[4.4]nonane]
1.91 µM	CCC1CC2(CCCC2)CN1S(=O)(=O)c1cccs1 (single isomer, unassigned) [Example 99, 3-ethyl-2-(thiophen-2-ylsulfonyl)-2-azaspiro[4.4]nonane]
8.32 µM	CC1CC2(CCC2)CN1S(=O)(=O)c1cccs1 (single isomer, unassigned) [Example 103, 7-Methyl-6-(thiophen-2-ylsulfonyl)-6-azaspiro[3.4]octane]
2.19 µM	Cc1nc(C)c(S(=O)(=O)N2CC3(CCC3)CC2C)s1 (single isomer, unassigned) [Example 106, 2,4-Dimethyl-5-((7-methyl-6-azaspiro[3.4]octan-6-yl)sulfonyl)thiazole]
